In patent publication US20150111781A1, “ANALYZING SEMAPHORIN7A (Sema7A) LEVELS FOR ASSESSING CANCER METASTATIC POTENTIAL” (Florida Atlantic University, priority 2012, published 2015):

Tested on: MCF-10A cells
Assay: TGF-β1 induction of Sema7A gene expression by qRT-PCR
Type: cell-based, human
Settings: 5 ng/ml, within 18 hours, vs vehicle
Protocol: We then wanted to establish an in vitro system to study the functional role of Sema7A in the breast epithelia. To do so, we assayed the Sema7A expression in human breast cell lines with varying degrees of malignancy using quantitative real-time PCR (qRT-PCR).
We treated MCF-10A cells with 5 ng/ml of TGF-β1 or vehicle for 18, 24 or 36 hours. MCF-10A cells were then assayed for Sema7A gene expression by qRT-PCR. […] TGF-β1 is a key inducer of epithelial to mesenchymal transition (EMT) and Sema7A could serve as a down-stream effecter of TGF-β1 in EMT.

## TGF-β1: Transforming growth factor beta-1, used to induce Sema7A expression in MCF-10A breast epithelial cells
  expression of Sema7A: significantly increased
